Assay [1] relates to SaM-1 cells. Nature of the assay: Gene expression during osteoblast differentiation of SaM-1 cells, real-time RT-PCR. The assay is classed as cell-based, human. To be noted: various concentrations, up to 28 days, relative to beta actin. From the text:
The medium was replaced every 2 to 3 days. Cells were recovered at the fourth day, seventh day, fourteenth day, and twenty-eighth day until the final differentiation (calcification) on the twenty-eighth day. Total RNA was extracted using an RNeasy Mini Kit (QIAGEN, Product No. 74104) and cDNA synthesized using an Ommniscript RTKit (QIAGEN, Product No. 205110). The cDNA was mixed with SYBR Green PCR Master Mix (Applied Biosystems, Product No. 4367659) and primer oligos suitable for amplifying various types of genes. Variation in the gene expression of the alkaline phosphatase which is a marker for osteoblast differentiation, CDP and osteocalcin, and beta actin which is known as a universally expressed housekeeping gene was examined by real-time RT-PCR using a GeneAmp 5700 Sequence Detection System (Applied Biosystems) or ABI PRISM 7000 Sequence Detection System (Applied Biosystems). Oligos complementary to the various genes were designed by general methods and synthesized by Sigma Genosys. The results are shown by relative values with respect to the amount of expression of beta actin. […] The value for the relative amount of expression is calculated using the formula 2^−(ΔΔCT of target gene−ΔΔCT of beta actin).

The test system of assay [2] is HOS cells. Nature of the assay: Gene expression in HOS cells transfected with pSPORT6-CDP, real-time RT-PCR. The assay is classed as cell-based, human. To be noted: HOS cells with CDP introduced, various concentrations, three days, relative to GAPDH. The protocol:
After three days, cells were recovered, and total RNA was extracted using an RNeasy Mini Kit (QIAGEN, Product No. 74104). Reverse transcription reactions were performed by oligo dT primers using SuperScriptlll RT (Invitrogen, 18080-044) and the amount of expression of various genes was determined using real-time RT-PCR (Applied Biosystems, GeneAmp7000). The amount of gene expression was corrected using GAPDH which is a housekeeping gene and shown as a relative figure of GAPDH and the amount of respective gene expression. The formula used is the same as that used in Example 5.

Assay [3] deals with human CYP24 gene promoter. Nature of the assay: Dual luciferase assay, human CYP24 gene promoter in HOS cells. Conditions: 10^−8 M, 24 hours. Format: cell-based. The protocol:
(§1) In order to determine whether or not CDP expression increases VDR ligand-dependent transcription activity, a dual luciferase assay was performed using transient transfection in the same manner as Example 6. The reporter vector used in the dual luciferase assay was a pGL4 vector containing a sequence of human CYP24 gene promoter or a sequence of a human osteocalcin gene promoter upstream of the luciferase gene. The pGL4 vector was commercially obtained from Promega. Furthermore, a DNA sequence encoding a region of 4-427 amino acid residues for human VDR was introduced into a pTracerCMV2 vector (Invitrogen) in order to construct a human VDR expression plasmid. The expression vector for intracellular expression of the CDP protein was the pSPORT6-CDP vector used in Example 4. HOS cells used in the assay were cultured in DMEM medium containing 10% FBS and were passaged every two or three days. The culturing conditions were 37° C., 5% CO2. […] The medium was removed after 24 hours and after washing once in PBS(−), luciferase activity was determined by a Dual-Luciferase Assay kit (Promega) using a luminometer (Bethold Japan). The results were expressed as a “transcription activation” being the value represented by (firefly luciferase activity)/(renilla luciferase activity). […]

In assay [4] the test system is human osteocalcin gene promoter. Description: Dual luciferase assay, human osteocalcin gene promoter in HOS cells. To be noted: 10^−8 M, 24 hours, endogenous VDR. Format: cell-based. As for the experimental part: as §1
The subject of assay [5] is HOS-TE85 cells. Description: Differentiation of HOS-TE85 cells in culture. The assay is classed as cell-based. To be noted: culturing in the presence of the compound.
Assay [6] has as its system HeLa cells. Description: Differentiation of HeLa cells in culture. The assay is classed as cell-based. Conditions: culturing in the presence of the compound.
Assay [7] concerns MCF-7 cells. Nature of the assay: Differentiation of MCF-7 cells in culture. To be noted: culturing in the presence of the compound. The assay is classed as cell-based.
The subject of assay [8] is SaM-1 cells. Description: Alkaline phosphatase staining of SaM-1 cells infected with Ad-CDP or Ad-mock. Conditions: 10^−8−10^−7 M, seven days.
Description: The cells were used to inoculate a 24 well multi-well plate and cultured. When the cells reached 80% confluence, the medium was exchanged for a proliferation medium containing the virus, cultured overnight in order to infect the cells with the virus. Then the medium was exchange for a proliferation medium not containing a virus. […] The medium was exchanged every two days and cultured for seven days. After seven days culturing, alkaline phosphatase staining was performed.
The target in assay [9] is T1, CCAAT Displacement Protein (CDP), endogenous protein in nuclear protein extracts (human, UniProt P39880 1-1505, limits assumed).
T1 construct: Endogenous protein of nuclear extracts from HOS (human osteoblast cell strain), HeLa or Caco-2 cells; also called CUTL1; CUX
Description: immunoprecipitation with anti-CDP antibody of the glutathione eluate of GST-VDR-bound HOS nuclear proteins (with 1,25(OH)2D3); western blot.

T1 sequence (P39880 whole entry): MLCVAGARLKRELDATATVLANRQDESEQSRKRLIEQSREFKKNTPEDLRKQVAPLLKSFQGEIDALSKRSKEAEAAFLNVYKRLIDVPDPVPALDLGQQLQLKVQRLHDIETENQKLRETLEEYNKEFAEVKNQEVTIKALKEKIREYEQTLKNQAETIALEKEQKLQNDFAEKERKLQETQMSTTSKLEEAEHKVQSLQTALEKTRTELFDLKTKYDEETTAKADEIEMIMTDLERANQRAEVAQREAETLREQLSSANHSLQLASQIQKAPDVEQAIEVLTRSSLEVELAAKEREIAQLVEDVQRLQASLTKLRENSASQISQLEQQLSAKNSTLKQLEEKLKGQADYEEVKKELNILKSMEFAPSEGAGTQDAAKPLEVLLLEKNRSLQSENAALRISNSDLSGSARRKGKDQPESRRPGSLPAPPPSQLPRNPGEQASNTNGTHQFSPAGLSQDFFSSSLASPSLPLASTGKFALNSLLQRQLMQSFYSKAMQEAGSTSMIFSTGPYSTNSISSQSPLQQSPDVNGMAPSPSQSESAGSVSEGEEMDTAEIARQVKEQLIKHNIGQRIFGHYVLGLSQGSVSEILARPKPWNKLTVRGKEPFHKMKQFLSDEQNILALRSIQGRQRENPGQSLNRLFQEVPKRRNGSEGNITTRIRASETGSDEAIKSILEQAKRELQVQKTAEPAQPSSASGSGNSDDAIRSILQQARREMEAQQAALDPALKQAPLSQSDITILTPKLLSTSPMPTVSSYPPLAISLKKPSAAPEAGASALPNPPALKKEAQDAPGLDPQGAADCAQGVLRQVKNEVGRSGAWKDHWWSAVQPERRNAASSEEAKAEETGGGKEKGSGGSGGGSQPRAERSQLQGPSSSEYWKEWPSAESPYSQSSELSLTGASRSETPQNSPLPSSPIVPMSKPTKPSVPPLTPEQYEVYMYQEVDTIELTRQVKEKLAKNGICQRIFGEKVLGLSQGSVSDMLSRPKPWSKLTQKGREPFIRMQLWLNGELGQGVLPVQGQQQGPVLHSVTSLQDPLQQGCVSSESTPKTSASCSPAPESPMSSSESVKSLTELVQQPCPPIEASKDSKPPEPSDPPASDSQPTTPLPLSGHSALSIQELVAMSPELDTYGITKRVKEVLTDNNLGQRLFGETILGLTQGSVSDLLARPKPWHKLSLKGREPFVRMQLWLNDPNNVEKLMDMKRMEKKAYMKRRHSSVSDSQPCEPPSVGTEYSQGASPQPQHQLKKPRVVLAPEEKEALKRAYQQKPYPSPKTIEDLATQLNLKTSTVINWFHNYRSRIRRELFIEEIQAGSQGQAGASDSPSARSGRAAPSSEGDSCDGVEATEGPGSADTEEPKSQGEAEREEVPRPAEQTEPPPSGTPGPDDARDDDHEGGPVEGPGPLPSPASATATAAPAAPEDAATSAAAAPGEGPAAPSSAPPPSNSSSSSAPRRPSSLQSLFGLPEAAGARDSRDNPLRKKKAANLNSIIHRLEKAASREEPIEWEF

With `C=C1/C(=C\C=C2/CCC[C@]3(C)[C@@H]([C@H](C)CCCC(C)(C)O)CC[C@@H]23)C[C@@H](O)C[C@@H]1O` [1,25 (OH)2D3, 1α,25-dihydroxyvitamin D3], in assay [1], the “gene expression of CDP” value is on record as “increase”. For the same molecule, the “gene expression of osteocalcin” value in [1] is given as “increase”; in [2] it was “increased”. Moreover, the “gene expression of CYP24” value in assay [2] was “increased”. Also, the “gene expression of alkaline phosphatase (ALP)” value in [2] was “increased”. Also, the “VDR-mediated transcription activation of a human CYP24 promoter” value in assay [3] is listed as “increases”. In assay [3] (pSPORT6-CDP co-transfected), the “VDR-mediated transcription activation of a human CYP24 promoter when CDP is expressed” value is recorded as “further increased when CDP is expressed”. In addition, the “VDR-mediated transcription activation of a human osteocalcin promoter” value in assay [4] was “increases”. In addition, the “VDR-mediated transcription activation of a human osteocalcin promoter when CDP is expressed” value in assay [4] (pSPORT6-CDP co-transfected) is on record as “further increased when CDP is expressed”. For the same molecule, the results for the cell differentiation result in assay [5], in assay [6] and in [7] were “differentiate”, “this type of action was not seen” and “this type of action was not seen”, respectively. Further, the figures for the “number of alkaline phosphatase-positive cells” value in assay [8] (Ad-CDP group (CDP over-expressed)) and in assay [8] (Ad-mock group) were “conspicuously higher increase in the number of alkaline phosphatase-positive cells” and “increase in the number of alkaline phosphatase-positive cells”, respectively.

B1: TRAP100, endogenous protein in nuclear protein extracts (other, human, UniProt O75448 1-989, looked up)
chain: MKVVNLKQAILQAWKERWSDYQWAINMKKFFPKGATWDILNLADALLEQAMIGPSPNPLILSYLKYAISSQMVSYSSVLTAISKFDDFSRDLCVQALLDIMDMFCDRLSCHGKAEECIGLCRALLSALHWLLRCTAASAERLREGLEAGTPAAGEKQLAMCLQRLEKTLSSTKNRALLHIAKLEEASSWTAIEHSLLKLGEILANLSNPQLRSQAEQCGTLIRSIPTMLSVHAEQMHKTGFPTVHAVILLEGTMNLTGETQSLVEQLTMVKRMQHIPTPLFVLEIWKACFVGLIESPEGTEELKWTAFTFLKIPQVLVKLKKYSHGDKDFTEDVNCAFEFLLKLTPLLDKADQRCNCDCTNFLLQECGKQGLLSEASVNNLMAKRKADREHAPQQKSGENANIQPNIQLILRAEPTVTNILKTMDADHSKSPEGLLGVLGHMLSGKSLDLLLAAAAATGKLKSFARKFINLNEFTTYGSEESTKPASVRALLFDISFLMLCHVAQTYGSEVILSESRTGAEVPFFETWMQTCMPEEGKILNPDHPCFRPDSTKVESLVALLNNSSEMKLVQMKWHEACLSISAAILEILNAWENGVLAFESIQKITDNIKGKVCSLAVCAVAWLVAHVRMLGLDEREKSLQMIRQLAGPLFSENTLQFYNERVVIMNSILERMCADVLQQTATQIKFPSTGVDTMPYWNLLPPKRPIKEVLTDIFAKVLEKGWVDSRSIHIFDTLLHMGGVYWFCNNLIKELLKETRKEHTLRAVELLYSIFCLDMQQVTLVLLGHILPGLLTDSSKWHSLMDPPGTALAKLAVWCALSSYSSHKGQASTRQKKRHREDIEDYISLFPLDDVQPSKLMRLLSSNEDDANILSSPTDRSMSSSLSASQLHTVNMRDPLNRVLANLFLLISSILGSRTAGPHTQFVQWFMEECVDCLEQGGRGSVLQFMPFTTVSELVKVSAMSSPKVVLAITDLSLPLGRQVAAKAIAAL
For B1, in assay [9], the binding result was “no binding”.

(Values after patent US8030016B2, “Method for screening for vitamin D receptor ligands” (Teijin Pharma Limited, priority 2006, dated 2011).)
